The source of these data is ChEMBL document CHEMBL5390198, “Scaffold hopping of N-benzyl-3,4,5-trimethoxyaniline: 5,6,7-Trimethoxyflavan derivatives as novel potential anticancer agents modulating hippo signaling pathway” (2023).

The source made the active and inactive calls. The rule behind the calls is not given here.

Common to all, as to assay type: functional
One assay concerns NCI-H23. The assay is described as follows: cells. To be noted: Homo sapiens, time 24-72 hrs.
Another assay concerns NCI-H522. Put plainly: Antiproliferative activity against human NCI-H522 cells assessed as inhibition of cell growth at 10 uM measured after 24 to 72 hrs by SRB method relative to control. To be noted: time 24-72 hrs.
For another assay, the system named is NCI-H322M. Put plainly: Antiproliferative activity against human NCI-H322M cells assessed as inhibition of cell growth at 10 uM measured after 24 to 72 hrs by SRB method relative to control. To be noted: time 24-72 hrs. Background: Sulforhodamine B stains cellular protein and so reports cell mass.
The subject of a further assay is HOP-62. The assay is described as follows: Antiproliferative activity against human HOP-62 cells assessed as inhibition of cell growth at 10 uM measured after 24 to 72 hrs by SRB method relative to control. The note with it: time 24-72 hrs.
For a further assay, the system named is HOP-92. Put plainly: cells. The note with it: Homo sapiens, time 24-72 hrs.
The test system of the next assay is NCI-H226. The assay is described as follows: cells. The note with it: Homo sapiens, time 24-72 hrs.
The next assay deals with EKVX. The assay is described as follows: cells. To be noted: Homo sapiens, time 24-72 hrs.
The next assay has as its system A549. The assay is described as follows: cells. The note with it: Homo sapiens, time 24-72 hrs.
Another assay deals with NCI-H460. Put plainly: cells. To be noted: Homo sapiens, time 24-72 hrs.

Description for A549: Antiproliferative activity against human A549 cells assessed as inhibition of cell growth at 10 uM measured after 24 to 72 hrs by SRB method relative to control
Description for EKVX: Antiproliferative activity against human EKVX cells assessed as inhibition of cell growth at 10 uM measured after 24 to 72 hrs by SRB method relative to control
Description for HOP-92: Antiproliferative activity against human HOP-92 cells assessed as inhibition of cell growth at 10 uM measured after 24 to 72 hrs by SRB method relative to control
Description for NCI-H226: Antiproliferative activity against human NCI-H226 cells assessed as inhibition of cell growth at 10 uM measured after 24 to 72 hrs by SRB method relative to control
Description for NCI-H23: Antiproliferative activity against human NCI-H23 cells assessed as inhibition of cell growth at 10 uM measured after 24 to 72 hrs by SRB method relative to control
Description for NCI-H460: Antiproliferative activity against human NCI-H460 cells assessed as inhibition of cell growth at 10 uM measured after 24 to 72 hrs by SRB method relative to control

As a reminder, the inhibition is the share of the control response that was lost under treatment. For the compound `COc1cc2c(c(OC)c1OC)CCC(c1cccc(NC(=O)c3ccc([N+](=O)[O-])cc3)c1)O2` (stereo not given), the inhibition at 10 µM came to 34.2% in the assay with NCI-H23; 32.5% in the assay with NCI-H522; 11% in the assay on NCI-H322M; 7.28% in the assay with HOP-62; 15.7% in the assay on HOP-92; 50.7% in the assay on NCI-H226. Besides, the inhibition at 10 µM was 35.4% in the assay with EKVX, 32.2% in the assay on A549 and 29% with NCI-H460.

For the compound `COc1cc2c(c(OC)c1OC)CCC(c1cccc(NC(=O)c3ccccc3Br)c1)O2` (stereo not given), the inhibition at 10 µM in the assay on NCI-H23 stood at 5.1%; in the assay with NCI-H522 it was 20.7%; with NCI-H322M, 6.37%; in the assay on HOP-62 it was 2.7%; with HOP-92, 8.39%; in the assay on NCI-H226, 14.6%. Also, the inhibition at 10 µM in the assay with EKVX came to 7.82%; in the assay on A549 it was 13.8%.

Take `COc1cc2c(c(OC)c1OC)CCC(c1cccc(NC(=O)c3ccc(C#N)cc3)c1)O2` (stereo not given): the inhibition at 10 µM in the assay with NCI-H23 was found to be 28.1%; in the assay on NCI-H522, 42.8%; in the assay with NCI-H322M it was 11.1%; with HOP-62, 21.8%; with HOP-92, 10.6%; in the assay on NCI-H226, 28.8%. The results for the inhibition at 10 µM with EKVX, in the assay with A549 and in the assay on NCI-H460 were 29%, 29.4% and 5.83%, respectively.

For `COc1cc2c(c(OC)c1OC)CCC(c1cccc(NC(=O)c3ccc(Br)cc3)c1)O2` (stereo not given), the inhibition at 10 µM with NCI-H23 is 19.9%; with NCI-H522 it was 25.4%; in the assay on NCI-H322M it was 24.9%; with HOP-62, 12.8%; in the assay with HOP-92, 41.5%; in the assay with NCI-H226 it was 27.6%. In addition, the figures for the inhibition at 10 µM with EKVX, with A549 and with NCI-H460 were 22.8%, 32.6% and 6.47%, respectively.

In the case of `COc1cccc(C(=O)Nc2cccc(C3CCc4c(cc(OC)c(OC)c4OC)O3)c2)c1` (stereo not given), the inhibition at 10 µM is 10.2% with NCI-H23; 33.5% in the assay on NCI-H522; 18.6% in the assay on NCI-H322M; 8.46% in the assay on HOP-62; 13% in the assay on HOP-92; 24% in the assay with NCI-H226. Also, the inhibition at 10 µM is 15.2% in the assay with EKVX, 22.1% in the assay on A549 and 4.3% in the assay on NCI-H460.

Turning to `COc1ccccc1C(=O)Nc1cccc(C2CCc3c(cc(OC)c(OC)c3OC)O2)c1` (stereo not given), the inhibition at 10 µM in the assay with NCI-H23 came to 0.42%; in the assay with NCI-H522, 19.7%; in the assay on NCI-H322M, 3.14%; in the assay on HOP-62, 4.59%; in the assay on HOP-92, 4.05%; in the assay on NCI-H226 it was 8.5%. Besides, the inhibition at 10 µM with EKVX was found to be 2.25%; with A549, 11.7%; in the assay on NCI-H460, 2.38%.

In the case of `COc1cc2c(c(OC)c1OC)CCC(c1cccc(C(=O)Nc3ccc(Br)cc3)c1)O2` (stereo not given), the inhibition at 10 µM with NCI-H23 stood at 24.2%; with NCI-H522, 51.1%; in the assay on NCI-H322M it was 50%; in the assay with HOP-62, 18%; in the assay with HOP-92, 83%; in the assay on NCI-H226, 37.3%. The inhibition at 10 µM amounted to 39.5% in the assay on EKVX, 35.8% with A549 and 16% in the assay with NCI-H460.

As for `COc1cc2c(c(OC)c1OC)CCC(c1cccc(C(=O)Nc3ccccc3)c1)O2` (stereo not given), the inhibition at 10 µM with NCI-H23 came out at 15.3%; in the assay on NCI-H522, 38%; with NCI-H322M, 41.1%; with HOP-62 it was 6.18%; in the assay on HOP-92 it was 77.9%; in the assay on NCI-H226 it was 25.6%. Besides, the inhibition at 10 µM in the assay on EKVX was 9.05%; in the assay with A549 it was 15.8%; in the assay with NCI-H460 it was 12.2%.

Consider `COc1cccc(NC(=O)c2cccc(C3CCc4c(cc(OC)c(OC)c4OC)O3)c2)c1` (stereo not given), for which the inhibition at 10 µM stood at 26.1% with NCI-H23; 46.9% with NCI-H522; 45.8% in the assay on NCI-H322M; 14.8% in the assay with HOP-62; 73.7% in the assay with HOP-92; 46.3% with NCI-H226. Also, the values for the inhibition at 10 µM in the assay on EKVX, with A549 and in the assay with NCI-H460 were 30.9%, 29.2% and 16%, respectively.

Consider `COc1cc(C(=O)Nc2cccc(C3CCc4c(cc(OC)c(OC)c4OC)O3)c2)cc(OC)c1OC` (stereo not given), for which the inhibition at 10 µM in the assay on NCI-H23 turned out to be 6.7%; with NCI-H522, 56.8%; in the assay with NCI-H322M, 3.54%; in the assay with HOP-62 it was 26.1%; with HOP-92, 48.9%; in the assay on NCI-H226 it was 23.8%. The inhibition at 10 µM was found to be 19.5% in the assay with EKVX, 27.6% with A549 and 12.7% with NCI-H460.

`COc1cc2c(c(OC)c1OC)CCC(c1cccc(C(=O)Nc3cccc(Cl)c3)c1)O2` (stereo not given): the inhibition at 10 µM in the assay on NCI-H23 was 14.2%; in the assay with NCI-H522 it was 48.3%; with NCI-H322M, 48.3%; in the assay on HOP-62 it was 20.4%; in the assay on HOP-92 it was 91.5%; in the assay on NCI-H226, 34.4%. For the same compound, the inhibition at 10 µM with EKVX was determined as 35.8%; in the assay with A549 it was 38.5%; in the assay with NCI-H460 it was 15%.

With `COc1cc2c(c(OC)c1OC)CCC(c1cccc(C(=O)Nc3ccc([N+](=O)[O-])cc3)c1)O2` (stereo not given), the inhibition at 10 µM in the assay with NCI-H23 was found to be 52.8%; in the assay with NCI-H522, 50.4%; with NCI-H322M, 31.7%; with HOP-62 it was 23.3%; in the assay on HOP-92, 57.4%; in the assay with NCI-H226, 51.7%. Also, the inhibition at 10 µM was 44.6% with EKVX, 44.8% with A549 and 41.1% in the assay with NCI-H460.

`COc1cc2c(c(OC)c1OC)CCC(c1cccc(NC(=O)c3ccccc3)c1)O2` (stereo not given): the inhibition at 10 µM came out at 15.6% with NCI-H23; 24.3% with NCI-H522; 5.18% in the assay with NCI-H322M; 1.13% in the assay with HOP-62; 5.1% in the assay on HOP-92; 19.8% with NCI-H226. In addition, the inhibition at 10 µM with A549 was 19.5%.

For the compound `COc1cc2c(c(OC)c1OC)CCC(c1cccc(NC(=O)C(C)C)c1)O2` (stereo not given), the inhibition at 10 µM turned out to be 2.65% in the assay on NCI-H23, 9.48% with NCI-H522, 3.99% in the assay with NCI-H226 and 10.7% in the assay with A549. Also, the inhibition result in the assay with NCI-H322M and with HOP-62 was “inactive” in each case.

Regarding `COc1cc2c(c(OC)c1OC)CCC(c1cccc(C(=O)Nc3ccc(C#N)cc3)c1)O2` (stereo not given), the inhibition at 10 µM worked out at 59.4% with NCI-H23; 61.6% in the assay on NCI-H522; 22.6% in the assay on NCI-H322M; 27.9% in the assay on HOP-62; 47.7% with HOP-92; 67% in the assay on NCI-H226. Further, the inhibition at 10 µM in the assay on EKVX stood at 39.9%; in the assay with A549, 49.1%; in the assay with NCI-H460, 43.5%.

As for `COc1cc2c(c(OC)c1OC)CCC(c1cccc(C(=O)Nc3ccccc3Br)c1)O2` (stereo not given), the inhibition at 10 µM was found to be 2.79% with NCI-H23; 19.9% in the assay on NCI-H522; 5.11% in the assay with NCI-H322M; 7.73% in the assay with HOP-62; 33.7% in the assay on HOP-92; 7.74% in the assay with NCI-H226. In addition, the inhibition at 10 µM in the assay on EKVX was determined as 9.92%; in the assay on A549 it was 18.9%.

Turning to `COc1cc2c(c(OC)c1OC)CCC(c1cccc(NC(=O)c3cccc(Cl)c3)c1)O2` (stereo not given), the inhibition at 10 µM with NCI-H23 was 7.27%; in the assay with NCI-H522, 37.9%; in the assay on NCI-H322M it was 9.74%; in the assay on HOP-62 it was 7.17%; in the assay on HOP-92, 16.9%; in the assay on NCI-H226, 20.2%. The inhibition at 10 µM with EKVX was found to be 14.1%; in the assay on A549, 15%; in the assay with NCI-H460 it was 3.06%.

On to `COc1ccccc1NC(=O)c1cccc(C2CCc3c(cc(OC)c(OC)c3OC)O2)c1` (stereo not given), for which the inhibition at 10 µM was determined as 1.98% with NCI-H23; 27.7% with NCI-H522; 11.4% in the assay with NCI-H322M; 8.84% with HOP-62; 9.4% with HOP-92; 8.23% in the assay with NCI-H226. Also, the values for the inhibition at 10 µM in the assay with EKVX, in the assay with A549 and in the assay on NCI-H460 were 5.98%, 9.57% and 2.86%, respectively.

For `COc1cc2c(c(OC)c1OC)CCC(c1cccc(C(=O)Nc3cccc(Br)c3)c1)O2` (stereo not given), the inhibition at 10 µM in the assay with NCI-H23 was 22.5%; in the assay on NCI-H522, 51.2%; in the assay on NCI-H322M it was 49.1%; in the assay on HOP-62 it was 3.19%; in the assay on HOP-92, 93.8%; in the assay with NCI-H226, 30.1%. Also, the values for the inhibition at 10 µM in the assay on EKVX, in the assay on A549 and in the assay on NCI-H460 were 49.6%, 35.5% and 29.5%, respectively.

As to `COc1cc2c(c(OC)c1OC)CCC(c1cccc(NC(=O)c3cccc(Br)c3)c1)O2` (stereo not given), the inhibition at 10 µM in the assay on NCI-H23 is 4.86%; with NCI-H522, 19%; with NCI-H322M, 1.51%; in the assay with HOP-62 it was 0.21%; in the assay on HOP-92, 6.02%; with NCI-H226 it was 6.31%. The inhibition at 10 µM was 15.4% in the assay with EKVX and 18.8% in the assay on A549.

As to `COc1cc2c(c(OC)c1OC)CCC(c1cccc(C(=O)NC(C)C)c1)O2` (stereo not given), the inhibition at 10 µM with NCI-H23 turned out to be 6.78%; in the assay on NCI-H522, 17%; with NCI-H322M, 4.16%; in the assay with HOP-62, 1.41%; in the assay on HOP-92, 19.7%; in the assay with NCI-H226, 16.4%. The results for the inhibition at 10 µM with A549 and in the assay on NCI-H460 were 1.14% and 2.47%, respectively.
